Source: publication PMC5309861, “Mechanistic insight into the substrate specificity of 1,2-β-oligoglucan phosphorylase from Lachnoclostridium phytofermentans” (Scientific Reports, 2017)

Molecular target: T1, LpSOGP (Lachnoclostridium phytofermentans, UniProt A9KJS6)
T1 construct: gene Cphy_0694
T1 sequence (A9KJS6 1-1113): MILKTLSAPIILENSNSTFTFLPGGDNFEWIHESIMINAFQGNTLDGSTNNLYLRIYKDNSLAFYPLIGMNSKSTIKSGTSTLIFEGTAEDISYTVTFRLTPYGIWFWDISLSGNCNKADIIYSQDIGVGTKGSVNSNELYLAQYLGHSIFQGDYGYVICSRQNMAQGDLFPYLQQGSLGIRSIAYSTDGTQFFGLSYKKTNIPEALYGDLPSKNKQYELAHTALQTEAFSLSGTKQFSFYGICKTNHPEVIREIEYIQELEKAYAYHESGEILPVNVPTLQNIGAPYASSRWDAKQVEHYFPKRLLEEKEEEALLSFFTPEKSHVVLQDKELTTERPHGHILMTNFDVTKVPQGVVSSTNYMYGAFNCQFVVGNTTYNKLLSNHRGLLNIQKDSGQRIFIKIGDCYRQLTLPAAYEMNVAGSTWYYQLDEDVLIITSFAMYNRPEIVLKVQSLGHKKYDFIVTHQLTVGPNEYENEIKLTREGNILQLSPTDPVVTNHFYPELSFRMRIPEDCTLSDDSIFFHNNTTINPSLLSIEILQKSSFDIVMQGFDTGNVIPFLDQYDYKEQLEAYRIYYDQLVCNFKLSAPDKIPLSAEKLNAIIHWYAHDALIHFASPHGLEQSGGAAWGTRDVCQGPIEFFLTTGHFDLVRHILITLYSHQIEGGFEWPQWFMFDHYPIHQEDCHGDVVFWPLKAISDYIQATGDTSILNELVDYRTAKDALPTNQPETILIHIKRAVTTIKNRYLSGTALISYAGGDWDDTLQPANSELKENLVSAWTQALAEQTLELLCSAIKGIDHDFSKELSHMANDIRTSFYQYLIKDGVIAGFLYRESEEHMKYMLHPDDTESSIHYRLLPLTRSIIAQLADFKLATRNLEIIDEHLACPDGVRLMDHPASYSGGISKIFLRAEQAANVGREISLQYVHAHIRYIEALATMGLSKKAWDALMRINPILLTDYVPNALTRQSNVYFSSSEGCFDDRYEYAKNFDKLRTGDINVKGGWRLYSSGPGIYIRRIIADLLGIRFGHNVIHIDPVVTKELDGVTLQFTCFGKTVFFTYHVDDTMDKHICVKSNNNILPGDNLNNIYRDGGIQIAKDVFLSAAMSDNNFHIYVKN
Conditions: phosphorolysis; pH 7.5, 30 °C; co-substrate oligosaccharide not stated
Description: G1P release, coupled phosphoglucomutase / G6PDH assay, Michaelis-Menten fit on LpSOGP

Synthesis / kcat/Km / (s^-1 mM^-1): 11 ± 1 mM
SMILES: O=P(O)(O)O [Pi, inorganic phosphate]
